Assay results taken from ChEMBL document CHEMBL1141324, “Saponins from the roots of Nylandtia spinosa” (J Nat Prod, 2007).
Converted amounts (≈) assume the structure as drawn.

Columns and labels:
HT-29 = experiment: Cytotoxicity against human HT29 cells by MTT assay; format: functional, cell-based
HCT-116 = experiment: Cytotoxicity against human HCT116 cells by MTT assay; format: functional, cell-based

| SMILES | IC50 (HT-29) | IC50 (HCT-116) |
| --- | --- | --- |
| C[C@@H]1O[C@H](OC(=O)[C@]23CCC(C)(C)CC2C2=CCC4[C@@]5(C)C[C@H](O)[C@H](O[C@@H]6O[C@H](CO)[C@@H](O)[C@H](O)[C@H]6O)[C@@](C)(C(=O)O)[C@@H]5CC[C@@]4(C)[C@]2(CO)CC3)[C@@H](O[C@H]2O[C@H](C)[C@@H](O[C@@H]3OC[C@@H](O)[C@H](O[C@@H]4OC[C@](O)(CO)[C@H]4O)[C@H]3O)[C@H](O)[C@@H]2O)[C@H](O)[C@@H]1O (stereo not given in full) | > 5 µg/mL | > 5 µg/mL |
| C[C@@H]1O[C@H](OC(=O)[C@]23CCC(C)(C)CC2C2=CCC4[C@@]5(C)C[C@H](O)[C@H](O[C@@H]6O[C@H](CO)[C@@H](O)[C@H](O)[C@H]6O)[C@@](C)(C(=O)O)[C@@H]5CC[C@@]4(C)[C@]2(CO)CC3)[C@@H](O[C@H]2O[C@H](C)[C@@H](O[C@@H]3OC[C@@H](O[C@@H]4O[C@H](CO)[C@H](O)[C@H](O)[C@H]4O)[C@H](O[C@@H]4OC[C@H](O)[C@H](O)[C@H]4O)[C@H]3O)[C@H](O)[C@@H]2O)[C@H](O)[C@@H]1O (stereo not given in full) | > 5 µg/mL | > 5 µg/mL |
| C[C@@H]1O[C@H](OC(=O)[C@]23CCC(C)(C)CC2C2=CCC4[C@@]5(C)C[C@H](O)[C@H](O[C@@H]6O[C@H](CO)[C@@H](O)[C@H](O)[C@H]6O)[C@@](C)(C(=O)O)[C@@H]5CC[C@@]4(C)[C@]2(CO)CC3)[C@@H](O[C@H]2O[C@H](C)[C@@H](O[C@@H]3OC[C@@H](O[C@@H]4O[C@H](CO)[C@H](O)[C@H](O)[C@H]4O)[C@H](O[C@@H]4OC[C@H](O)[C@H](O)[C@H]4O)[C@H]3O)[C@H](O[C@@H]3OC[C@](O)(CO)[C@H]3O)[C@@H]2O)[C@H](O)[C@@H]1O (stereo not given in full) | > 5 µg/mL | > 5 µg/mL |
| CC(=O)O[C@H]1C(=O)[C@@]2(C)[C@H]([C@H](OC(=O)c3ccccc3)[C@]3(O)C[C@H](OC(=O)[C@H](O)[C@@H](NC(=O)c4ccccc4)c4ccccc4)C(C)=C1C3(C)C)[C@]1(OC(C)=O)CO[C@@H]1C[C@@H]2O [PACLITAXEL] | 0.0053 µg/mL (≈ 0.00621 µM) | 0.008 µg/mL (≈ 0.00937 µM) |
| C[C@@H]1O[C@H](OC(=O)[C@]23CCC(C)(C)CC2C2=CCC4[C@@]5(C)C[C@H](O)[C@H](O[C@@H]6O[C@H](CO)[C@@H](O)[C@H](O)[C@H]6O)[C@@](C)(C(=O)O)[C@@H]5CC[C@@]4(C)[C@]2(CO)CC3)[C@@H](O[C@H]2O[C@H](C)[C@@H](O[C@@H]3OC[C@@H](O[C@@H]4OC[C@](O)(CO)[C@H]4O)[C@H](O)[C@H]3O[C@H]3O[C@@H](CO)[C@@H](O)[C@@H](O)[C@@H]3O)[C@H](O)[C@@H]2O)[C@H](O)[C@@H]1O (stereo not given in full) | > 5 µg/mL | > 5 µg/mL |
